Data set [1] relates to β-mannosidase EC 3.2.1.25. As to the kind of experiment: Commercial glycosidase screening. The format is biochemical. To be noted: snail. Here is the method:
(§1) Preliminary biological evaluation of compounds 14 and 15 (at 100 μM inhibitor concentration) was performed toward a panel of 12 commercial glycosidases (α-L-fucosidase EC 3.2.1.51 from Homo sapiens, α-galactosidase EC 3.2.1.22 from coffee beans, β-galactosidases EC 3.2.1.23 from Escherichia coli and Aspergillus oryzae, α-glucosidases EC 3.2.1.20 from yeast and rice, amyloglucosidase EC 3.2.1.3 from Aspergillus niger, β-glucosidase EC 3.2.1.21 from almonds, α-mannosidase EC 3.2.1.24 from Jack beans, β-mannosidase EC 3.2.1.25 from snail, and β-N-acetylglucosaminidases EC 3.2.1.52 from Jack beans and bovine kidney).
(§2) The percentage (%) of inhibition for compounds 14 and 15 toward the corresponding glycosidase was determined by quadruplicate in the presence of 100 μM of the inhibitor on the well. Each enzymatic assay (final volume 0.12 mL) contains 0.01–0.5 units/mL of the enzyme (with previous calibration) and 4.2 mM aqueous solution of the appropriate p-nitrophenyl glycopyranoside (substrate) buffered to the optimal pH of the enzyme. Enzyme and inhibitor were pre-incubated for 5 min at rt, and the reaction started by addition of the substrate. After 20 min of incubation at 37 °C, the reaction was stopped by addition of 0.1 mL of sodium borate solution (pH 9.8). The p-nitrophenolate formed was measured by visible absorption spectroscopy at 405 nm (Asys Expert 96 spectrophotometer). Under these conditions, the p-nitrophenolate released led to optical densities linear with both reaction time and concentration of the enzyme.
(§3) Biological screening towards commercial glycosidases
(§4) α-L-fucosidase EC 3.2.1.51
(§5) α-galactosidase EC 3.2.1.22 […]
(§6) β-glucosidase EC 3.2.1.21
(§7) α-mannosidase EC 3.2.1.24
(§8) β-mannosidase EC 3.2.1.25 […]
(§9) “-“: no inhibition (or less than 15%) detected.

For data set [2], the system named is β-glucosidase EC 3.2.1.21. Put plainly: Commercial glycosidase screening. The format is biochemical. The conditions noted are these: almonds. Here is the method: as §1, §2, §3, §4, §5, §6, §7, §8, §9
Data set [3] deals with α-L-fucosidase EC 3.2.1.51. As to the kind of experiment: Commercial glycosidase screening. The class given is biochemical. To be noted: Homo sapiens. Here is the method:
as §1, §2, §3, §4, §5, §6, §7, §8, §9

The target of data set [4] is T1, α-mannosidase EC 3.2.1.24 (Canavalia ensiformis, UniProt C0HJB3).
T1 construct: purchased
T1 sequence (C0HJB3 whole entry): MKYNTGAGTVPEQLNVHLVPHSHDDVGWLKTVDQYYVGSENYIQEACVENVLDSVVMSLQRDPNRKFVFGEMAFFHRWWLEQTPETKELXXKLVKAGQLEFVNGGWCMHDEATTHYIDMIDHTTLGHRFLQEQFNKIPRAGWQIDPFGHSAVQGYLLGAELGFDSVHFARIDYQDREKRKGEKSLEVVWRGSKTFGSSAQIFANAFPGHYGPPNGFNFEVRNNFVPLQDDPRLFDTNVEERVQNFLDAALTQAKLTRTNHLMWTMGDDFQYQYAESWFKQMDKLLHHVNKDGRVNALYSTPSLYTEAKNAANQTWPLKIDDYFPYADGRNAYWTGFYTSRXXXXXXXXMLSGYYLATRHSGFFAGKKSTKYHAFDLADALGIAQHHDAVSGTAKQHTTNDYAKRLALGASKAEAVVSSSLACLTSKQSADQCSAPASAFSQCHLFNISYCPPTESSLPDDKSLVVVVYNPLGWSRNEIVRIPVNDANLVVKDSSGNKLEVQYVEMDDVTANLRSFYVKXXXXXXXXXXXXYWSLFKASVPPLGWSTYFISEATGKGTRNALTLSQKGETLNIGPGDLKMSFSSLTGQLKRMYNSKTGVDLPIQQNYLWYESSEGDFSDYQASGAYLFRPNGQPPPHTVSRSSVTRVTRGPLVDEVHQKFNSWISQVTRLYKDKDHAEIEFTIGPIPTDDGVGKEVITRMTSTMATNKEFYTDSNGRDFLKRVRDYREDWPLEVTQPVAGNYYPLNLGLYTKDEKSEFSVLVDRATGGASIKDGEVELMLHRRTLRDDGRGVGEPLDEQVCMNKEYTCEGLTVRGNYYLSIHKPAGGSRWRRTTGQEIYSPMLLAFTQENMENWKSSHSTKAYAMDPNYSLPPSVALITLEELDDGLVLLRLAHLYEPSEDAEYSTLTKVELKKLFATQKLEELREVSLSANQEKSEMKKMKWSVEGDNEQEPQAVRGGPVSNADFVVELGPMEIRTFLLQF
As to the kind of experiment: Commercial glycosidase screening. The format is biochemical. The conditions noted are these: Jack beans, read-out: % Inhibition at 0.1 mM. Here is the method: as §1, §2, §3, §4, §5, §6, §7, §8, §9

Data set [5] addresses T2, α-galactosidase EC 3.2.1.22 (Coffea arabica, UniProt Q42656).
T2 construct: purchased
As to the kind of experiment: Commercial glycosidase screening. The format is biochemical. The conditions noted are these: coffee beans, read-out: % Inhibition at 0.1 mM. Here is the method:
as §1, §2, §3, §4, §5, §6, §7, §8, §9

Data set [6] concerns the target T3, amyloglucosidase EC 3.2.1.3 (Aspergillus niger, UniProt P69328).
T3 construct: purchased
Put plainly: Commercial glycosidase screening. The conditions noted are these: read-out: % Inhibition at 0.1 mM. The class given is biochemical. Here is the method: as §1, §2, §3, §4, §5, §6, §7, §8, §9

For data set [7], the target named is T4, GCase in fibroblasts bearing the L444P/L444P mutations (Homo sapiens, UniProt P04062, L483P).
T4 construct: fibroblasts derived from Gaucher patients bearing the N370S/RecNcil and L444P/L444P mutations; host or cells: fibroblasts from Gaucher disease patients, L444P/L444P
T4 sequence (P04062 40-536 L483P): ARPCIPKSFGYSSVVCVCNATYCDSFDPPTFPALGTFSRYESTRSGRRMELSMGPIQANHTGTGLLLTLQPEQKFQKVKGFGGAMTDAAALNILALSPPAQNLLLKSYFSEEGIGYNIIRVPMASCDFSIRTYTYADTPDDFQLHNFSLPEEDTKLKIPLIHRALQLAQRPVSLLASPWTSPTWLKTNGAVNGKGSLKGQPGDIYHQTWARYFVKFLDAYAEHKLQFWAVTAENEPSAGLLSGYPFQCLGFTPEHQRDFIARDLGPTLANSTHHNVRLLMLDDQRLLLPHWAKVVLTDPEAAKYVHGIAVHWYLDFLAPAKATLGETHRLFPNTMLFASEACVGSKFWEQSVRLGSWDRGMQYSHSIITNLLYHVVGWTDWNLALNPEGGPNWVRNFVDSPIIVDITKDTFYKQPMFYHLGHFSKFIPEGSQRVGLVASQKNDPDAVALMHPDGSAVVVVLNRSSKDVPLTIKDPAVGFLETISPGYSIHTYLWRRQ
Put plainly: Pharmacological chaperoning activity in L444P/L444P Gaucher fibroblasts. The conditions noted are these: for cell viability: 50 µM, 4 days; for GCase enzymatic activity rescue: 4 days incubation, 5 nM to 10 μM. The class given is cell-based. How it is done: The ability of compounds 14 and 15 to enhance the activity of GCase after incubation (4 days) with fibroblasts bearing the selected mutations was evaluated. The experiments were performed using fibroblasts derived from Gaucher patients bearing the N370S/RecNcil and L444P/L444P mutations (see the Supporting Information section).
Fibroblasts with the N370S/RecNcil (or L444P/L444P) mutation from Gaucher disease patients were obtained from the “Cell line and DNA Biobank from patients affected by Genetic Diseases” (Gaslini Hospital, Genova, Italy). Fibroblast cells (15.0 × 10^4) were seeded in T25 flasks with DMEM supplemented with fetal bovine serum (10%), penicillin/streptomycin (1%), and glutamine (1%) and incubated at 37 °C with 5% CO2 for 24 h. The medium was removed, and fresh medium containing the compounds (14, 15 and 33·HCl) was added to the cells and incubated for 4 days. The medium was removed, and the cells were washed with PBS and detached with trypsin to obtain cell pellets, which were washed four times with PBS, frozen, and lysed by sonication in water. Enzyme activity was measured as reported above. Reported data are mean S.D. (n = 2).
Figure S52. Fibroblasts derived from GD patients bearing L444P/L444P mutations were incubated without (control, ctrl) or with 7 different concentrations (5 nM, 10 nM, 50 nM, 100 nM, 1 µM, 10 µM, 50 µM) of compounds 14 or 15. After 4 days, the flasks containing cells incubated with 50 µM […]
other concentrations, the GCase activity was determined in lysates from treated fibroblasts. Reported data are mean S.D. (n=2).
(also on this page, place not known: beta glucosidase activity (nmol/mg/h) beta glucosidase activity (nmol/mg/h))

Structures are written as SMILES. “Also recorded” adds a separate entry of the source.

T2 sequence (Q42656 16-378): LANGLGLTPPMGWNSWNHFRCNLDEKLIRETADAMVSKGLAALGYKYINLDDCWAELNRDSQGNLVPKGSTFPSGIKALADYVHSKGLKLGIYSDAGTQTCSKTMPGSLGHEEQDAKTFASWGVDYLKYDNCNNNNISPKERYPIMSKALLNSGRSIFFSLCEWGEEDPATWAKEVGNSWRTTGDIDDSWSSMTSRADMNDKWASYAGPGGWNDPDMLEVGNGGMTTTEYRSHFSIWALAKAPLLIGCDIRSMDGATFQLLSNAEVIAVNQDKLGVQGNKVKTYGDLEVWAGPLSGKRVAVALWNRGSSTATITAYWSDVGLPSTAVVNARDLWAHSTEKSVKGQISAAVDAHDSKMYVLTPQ
T3 sequence (P69328 25-640): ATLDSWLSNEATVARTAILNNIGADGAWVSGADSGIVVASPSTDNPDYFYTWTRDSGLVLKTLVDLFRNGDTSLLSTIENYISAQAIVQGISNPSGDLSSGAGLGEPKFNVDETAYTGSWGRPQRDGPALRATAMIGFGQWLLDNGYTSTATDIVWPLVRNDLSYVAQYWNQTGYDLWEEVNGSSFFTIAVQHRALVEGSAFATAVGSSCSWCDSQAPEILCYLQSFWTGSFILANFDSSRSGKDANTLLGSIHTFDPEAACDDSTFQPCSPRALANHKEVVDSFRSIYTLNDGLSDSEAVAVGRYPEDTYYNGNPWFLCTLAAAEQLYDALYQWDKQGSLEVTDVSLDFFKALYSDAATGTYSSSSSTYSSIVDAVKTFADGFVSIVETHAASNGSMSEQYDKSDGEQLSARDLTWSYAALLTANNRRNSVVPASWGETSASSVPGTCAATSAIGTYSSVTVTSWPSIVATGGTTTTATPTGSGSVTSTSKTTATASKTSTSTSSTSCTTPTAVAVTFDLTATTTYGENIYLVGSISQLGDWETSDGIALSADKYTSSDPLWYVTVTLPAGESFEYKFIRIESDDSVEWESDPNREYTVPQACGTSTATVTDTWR

The term % Inhibition denotes the percentage by which the read-out fell short of the control. Low readings indicate a weak effect, high ones a strong effect. As a reminder, the inhibition is how much of the control response was suppressed. For `CCCCCCCC[C@H]1[C@@H](O)[C@H](O)[C@H](O)CN1CCCCCCCC` [compound 14, (2S,3R,4R,5R)-1,2-Dioctylpiperidine-3,4,5-triol], the figures for the “% Inhibition at 0.1 mM” value in data set [1], in data set [2] and in data set [3] were “- (“-“: no inhibition (or less than 15%) detected.)”, 30% and “- (“-“: no inhibition (or less than 15%) detected.)”, respectively. Besides, the inhibition at 100 µM in data set [4], in data set [5] and in data set [6] was less than 15% each time. Also, the cell viability entry in data set [7] is “low cell viability”. Further, the “GCase enzymatic activity rescue” value in data set [7] was “no enzymatic activity rescue; also recorded: no GCase activity enhancements”.

In the case of `CCCCCCCC[C@@H]1[C@@H](O)[C@H](O)[C@H](O)CN1CCCCCCCC` [compound 15, (2R,3R,4R,5R)-1,2-Dioctylpiperidine-3,4,5-triol], the “% Inhibition at 0.1 mM” value in data set [1], in data set [2] and in data set [3] was “- (“-“: no inhibition (or less than 15%) detected.)” throughout. The inhibition at 100 µM in data set [4], in data set [5] and in data set [6] was less than 15% in each case. For the same compound, the cell viability entry in data set [7] is reported as “low cell viability”. In data set [7], the “GCase enzymatic activity rescue” value is listed as “no enzymatic activity rescue; also recorded: no GCase activity enhancements”.
